Test results: patent US5298494A, “Monosaccharides having anti-proliferation and anti-inflammatory activity, compositions and uses thereof” (Greenwich Pharmaceuticals Incorporated, priority 1993, dated 1994)
Entries after “also recorded” stand apart in the source; their conditions may differ. Read-outs that look alike come from different tables or passages of the source.

Experiments:
[1] = tested on: T lymphocytes (normal mouse spleen cells) stimulated with ConA; assay: Mouse Spleen Cell ConA Blastogenesis Assay; type: cell-based, mouse (C57Bl/6)
[2] = tested on: BUD-8 human skin fibroblasts; assay: Fibroblast assay: proliferation of BUD-8 skin cell fibroblasts; type: cell-based
Experimental: The human skin cell fibroblast line, BUD-8 was obtained prior to each assay from the American Type Culture Collection. This is a fibroblast-like cell line which was originally derived from the normal skin of a person.
BUD-8 cell cultures were expanded for use in 25 cm^2 flasks at 37° C. in an atmosphere of 5% CO2 in air. At approximately 4-5 five day intervals, or when confluence was reached, the cells were passaged. This was accomplished by detaching the cells with a Teflon scraper, washing and reseeding the cells at a lower density into fresh tissue culture flasks.
(§1) The effect of the compound of the present invention on the proliferative capacity of human BUD-8 skin fibroblasts was measured with the use of a ^3 H-thymidine incorporation assay using culture conditions which were similar to those used for a Con-A blastogenesis assay, described previously. Cultured skin cells were detached from the surface of tissue culture flasks mechanically with a Teflon scraper. The cells were washed, resuspended in incubation medium and the viabilities were determined. These cells were then plated in triplicate at a density of 2×10^3 cells/0.1 ml/microtiter well for the proliferation assay and a density of 1×10^4 cells/0.1 ml/microtiter well for the assays to quantitate PGE2 and LTB4. To these cells was added incubation medium containing indomethacin to inhibit prostaglandin production, or nordihydroguaiaretic acid (NDGA) to inhibit leukotriene production (positive controls).
(§2) After 3 days of culture, 1 uCi ^3 H-thymidine was added in a 50 ul volume to each culture well of the microtiter plates. Eighteen hours later, each of the BUD-8 cultures was examined morphologically for evidence of compound-induced toxicity such as cell rounding or granularity. The thymidine-pulsed cells were then precipitated and the amount of ^3 H-thymidine incorporated was counted in a liquid scintillation counter.
The concentrations of the compounds of the invention which were used in these assays were:
The incubation medium used for culturing the BUD-8 cells was RPMI-1640 medium containing 10% fetal bovine serum, 100 ug/ml streptomycin, 100 U/ml penicillin, 0.2M Hepes buffer solution, 5×10^-5 M 2-mercaptoethanol and 2 mM glutamine.

[3] = tested on: LTB4 production by BUD-8 skin cell fibroblasts; assay: LTB4 production by BUD-8 skin cell fibroblasts (radioimmunoassay); type: cell-based, human
Experimental: as §1
After 18 hours of culture, samples of the BUD-8 skin cell supernatants were collected from one set of microtiter plates and frozen until assayed for PGE2 or for LTB4 content using the radioimmunoassays described below.
Levels of LTB4 in aliquots of BUD-8 skin cell cultures supernatants were quantitated by radioimmunoassay (New England Nuclear). Briefly, into each polyproplyene tube were mixed 0.1 ml anti-LTB4, 0.1. ml ^3 H-LTB4 and 0.1 ml LTB4 standard or LTB4 containing sample. The BUD-8 skin cell culture supernatants were used directly in the radioimmunoassay. Tubes were refrigerated overnight. A charcoal solution (0.5 ml of 0.5% charcoal Norit A) was added and each tube was centrifuged. The radioactivity in the supernatant was then counted in a liquid scintillation counter.

BUD-8 skin cells = assay: Morphological examination of BUD-8 cultures for compound-induced toxicity; type: cell-based, human
Experimental: as §2

[4] = ConA 1 ug/ml, compound 100 ug/ml
[5] = ConA 1 ug/ml, compound 300 ug/ml
[6] = ConA 1 ug/ml, compound 750 ug/ml
[7] = ConA 4 ug/ml, compound 300 ug/ml
[8] = ConA 4 ug/ml, compound 750 ug/ml

For CCCCCCCOCCCO[C@@H]1[C@H]2OC(C)(C)O[C@H]2O[C@@H]1[C@H](O)CO [IIg], the “Blastogenic response of normal spleen cells to Con-A” value (“Blastogenic response … to Con-A” below) ([1]; ConA 1 ug/ml, compound 1 ug/ml) was 91,958 ± 15,723 cpm, the “Blastogenic response … to Con-A” value ([1]; ConA 1 ug/ml, compound 10 ug/ml) was 100,734 ± 25,985 cpm and the “Blastogenic response … to Con-A” value ([1]; ConA 1 ug/ml, compound 25 ug/ml) was 108,874 ± 15,534 cpm. For the same molecule, the “% change from control, ConA blastogenic response” value (shortened to “% change from control”) [1, 4] was -67%, the “Blastogenic response … to Con-A” value [1, 4] was 23,806 ± 1,727 cpm and the “% change from control” value [1, 5] was -84%. For the same molecule, the “Blastogenic response … to Con-A” value [1, 5] was 11,212 ± 15,288 cpm, the “% change from control” value [1, 6] was -82% and the “Blastogenic response … to Con-A” value [1, 6] was 12,807 ± 9,049 cpm. For the same molecule, the “Blastogenic response … to Con-A” value ([1]; ConA 4 ug/ml, compound 1 ug/ml) was 174,764 × 10^3 cpm, the “Blastogenic response … to Con-A” value ([1]; ConA 4 ug/ml, compound 10 ug/ml) was 168,131 ± 14,911 cpm and the “Blastogenic response … to Con-A” value ([1]; ConA 4 ug/ml, compound 25 ug/ml) was 216,784 ± 27,862 cpm. For the same molecule, the “Blastogenic response … to Con-A” value ([1]; ConA 4 ug/ml, compound 100 ug/ml) was 31,073 ± 10,784 cpm, the “% change from control” value [1, 7] was -91% and the “Blastogenic response … to Con-A” value [1, 7] was 8,268 ± 322 × 10^3 cpm. For the same molecule, the “% change from control” value [1, 8] was -79%, the “Blastogenic response … to Con-A” value [1, 8] was 20,265 ± 12,455 cpm and the inhibition at 1 µg/mL ([1]; Mus musculus, T-lymphocyte, ConA 1 ug/ml, compound 1 ug/ml, read-out: % change from control, ConA blastogenic response) was -27%. It also gave an inhibition at 10 µg/mL ([1]; Mus musculus, T-lymphocyte, ConA 1 ug/ml, compound 10 ug/ml, read-out: % change from control, ConA blastogenic response) of -39%, an inhibition at 25 µg/mL ([1]; Mus musculus, T-lymphocyte, ConA 1 ug/ml, compound 25 ug/ml, read-out: % change from control, ConA blastogenic response) of -51% and an inhibition at 100 µg/mL ([1]; Mus musculus, T-lymphocyte, ConA 1 ug/ml, compound 100 ug/ml, read-out: % change from control, ConA blastogenic response) of 67%. It also gave an inhibition at 300 µg/mL ([1]; Mus musculus, T-lymphocyte, ConA 1 ug/ml, compound 300 ug/ml, read-out: % change from control, ConA blastogenic response) of 84%, an inhibition at 750 µg/mL ([1]; Mus musculus, T-lymphocyte, ConA 1 ug/ml, compound 750 ug/ml, read-out: % change from control, ConA blastogenic response) of 82% and an inhibition at 1 µg/mL ([1]; Mus musculus, T-lymphocyte, ConA 4 ug/ml, compound 1 ug/ml, read-out: % change from control, ConA blastogenic response) of -80%. The inhibition at 10 µg/mL ([1]; Mus musculus, T-lymphocyte, ConA 4 ug/ml, compound 10 ug/ml, read-out: % change from control, ConA blastogenic response) was -73%, the inhibition at 25 µg/mL ([1]; Mus musculus, T-lymphocyte, ConA 4 ug/ml, compound 25 ug/ml, read-out: % change from control, ConA blastogenic response) was -123% and the inhibition at 300 µg/mL ([1]; Mus musculus, T-lymphocyte, ConA 4 ug/ml, compound 300 ug/ml, read-out: % change from control, ConA blastogenic response) was 91%. The inhibition at 750 µg/mL ([1]; Mus musculus, T-lymphocyte, ConA 4 ug/ml, compound 750 ug/ml, read-out: % change from control, ConA blastogenic response) was 79%, the “^3 H-Thymidine uptake by BUD-8 skin cells” value (“^3 H-Thymidine uptake” for short) ([2]; 1 ug/ml) was 6,096 ± 1,352 cpm and the “^3 H-Thymidine uptake” value ([2]; 10 ug/ml) was 3,552 ± 994 cpm. The “^3 H-Thymidine uptake” value ([2]; 25 ug/ml) was 4,207 ± 450 cpm, the “^3 H-Thymidine uptake” value ([2]; 100 ug/ml) was 4,117 ± 481 cpm and the “^3 H-Thymidine uptake” value ([2]; 300 ug/ml) was 2,233 ± 244 cpm. The “^3 H-Thymidine uptake” value ([2]; 750 ug/ml) was 3,898 ± 1,692 cpm, the inhibition at 1 µg/mL ([2]; Homo sapiens, Skin fibroblast, 1 ug/ml, read-out: % Effect on BUD-8 proliferation) was 1% and the inhibition at 10 µg/mL ([2]; Homo sapiens, Skin fibroblast, 10 ug/ml, read-out: % Effect on BUD-8 proliferation) was 42%. The inhibition at 25 µg/mL ([2]; Homo sapiens, Skin fibroblast, 25 ug/ml, read-out: % Effect on BUD-8 proliferation) was 32%, the inhibition at 100 µg/mL ([2]; Homo sapiens, Skin fibroblast, 100 ug/ml, read-out: % Effect on BUD-8 proliferation) was 33% and the inhibition at 300 µg/mL ([2]; Homo sapiens, Skin fibroblast, 300 ug/ml, read-out: % Effect on BUD-8 proliferation) was 64%. For the same molecule, the inhibition at 750 µg/mL ([2]; Homo sapiens, Skin fibroblast, 750 ug/ml, read-out: % Effect on BUD-8 proliferation) was 37%, the “concentrations with significantly decreased LTB4 levels” value [3] was 1 to 100 µg/mL and the “LTB4 in supernatant (Table XIII)” value ([3]; 1 ug/ml) was 32.2 ± 1.9 pg LTB4 /1000 ul supernatant. The “calculated LTB4 produced/10^5 BUD-8 cells” value ([3]; 1 ug/ml) was 619 pg per 10^5 cells, the “LTB4 in supernatant (Table XIII)” value ([3]; 10 ug/ml) was 28.8 ± 1.4 pg LTB4 /1000 ul supernatant and the “calculated LTB4 produced/10^5 BUD-8 cells” value ([3]; 10 ug/ml) was 550 pg per 10^5 cells. For the same molecule, the “LTB4 in supernatant (Table XIII)” value ([3]; 25 ug/ml) was 23.7 ± 0.5 pg LTB4 /1000 ul supernatant, the “calculated LTB4 produced/10^5 BUD-8 cells” value ([3]; 25 ug/ml) was 447 pg per 10^5 cells and the “LTB4 in supernatant (Table XIII)” value ([3]; 100 ug/ml) was 27.3 ± 2.6 pg LTB4 /1000 ul supernatant. The “calculated LTB4 produced/10^5 BUD-8 cells” value ([3]; 100 ug/ml) was 520 pg per 10^5 cells, the “LTB4 in supernatant (Table XIII)” value ([3]; 300 ug/ml) was 24.5 ± 2.8 pg LTB4 /1000 ul supernatant and the “LTB4 in supernatant (Table XIII)” value ([3]; 750 ug/ml) was 19.3 ± 1.9 pg LTB4 /1000 ul supernatant. The inhibition at 1 µg/mL ([3]; Homo sapiens, Fibroblast, 18 h, 1 ug/ml, read-out: % Effect on LTB4 production) was 17%, the inhibition at 10 µg/mL ([3]; Homo sapiens, Fibroblast, 18 h, 10 ug/ml, read-out: % Effect on LTB4 production) was 26% and the inhibition at 25 µg/mL ([3]; Homo sapiens, Fibroblast, 18 h, 25 ug/ml, read-out: % Effect on LTB4 production) was 39%. It also gave an inhibition at 100 µg/mL ([3]; Homo sapiens, Fibroblast, 18 h, 100 ug/ml, read-out: % Effect on LTB4 production) of 30%, an inhibition at 300 µg/mL ([3]; Homo sapiens, Fibroblast, 18 h, 300 ug/ml, read-out: % Effect on LTB4 production) of 37% and an inhibition at 750 µg/mL ([3]; Homo sapiens, Fibroblast, 18 h, 750 ug/ml, read-out: % Effect on LTB4 production) of 50%. For the same molecule, the “cell toxicity in BUD-8 cultures, in words” value (BUD-8 skin cells) was “Evidence of cell toxicity was observed at the two highest concentrations of compound tested; also recorded: Cell toxicity was again observed in cultures which included 300 and 750 ug/ml of the compound; also recorded: Compound induced cell toxicity was observed only at the highest dose level tested”.
